Data: patent US9938279B2, “Method for treating disease or condition susceptible to amelioration by AMPK activators and compounds of formula which are useful to activate AMP-activated protein kinase (AMPK)” (ENERGENESIS BIOMEDICAL CO., LTD, priority 2013, dated 2018)

How the values were obtained:
AMPK [1] = assay: AMPK activation assay (western blot phospho-AMPK Thr172) in C2C12; format: cell-based, mouse; conditions: C2C12 cells, 30 min treatment
Experimental: (§1) Effects of compounds on AMPK activation were analyzed in mouse muscle cell C2C12, mouse fibroblast 3T3-L1 and human hepatocyte Hep G2. Those cell lines were cultured in high-glucose Dulbecco's modified Eagle's medium (DMEM) containing 10% fetal bovine serum (FBS), 4 mM L-glutamine, 2 mM sodium pyruvate and 1% penicillin/streptomycin (Invitrogen GibcoBRL, Carlsbad, Calif., USA) at 37° C. under 5% CO2. Cells were plated at 3×10^5 per well (6-well plate). 24 h after plating, cells were treated with indicated compounds for 30 min followed by cell lysis and western blot analysis. Equal amount of protein were separated by SDS-PAGE and then electroblotted on to PVDF membranes. Membranes were blocked with 3% BSA in PBS for 60 min and incubated with anti-phospho-AMPK (Thr172) antibody (1:2,000, Cell signaling), anti-AMPK antibody (1:2,000, Cell signaling), anti-Glut4 antibody (1:1,000, Millipore) or anti-actin antibody (1:5,000; Chemicon International) at 4° C. overnight followed by the corresponding secondary antibody for 1 h at room temperature (RT). Immunoreactive bands were detected by enhanced chemiluminescence (ECL; Pierce, Rockford, Ill., USA) and recorded using Kodakfilm (Rochester, N.Y., USA). The detected signals were scanned and then quantified by using TotalLab Quant software (TotalLab).

AMPK [2] = assay: AMPK activation assay (western blot phospho-AMPK Thr172) in 3T3-L1; format: cell-based, mouse; conditions: 3T3-L1 cells, 30 min treatment
Experimental: as §1

AMPK [3] = assay: AMPK activation assay (western blot phospho-AMPK Thr172) in Hep G2; format: cell-based, human; conditions: Hep G2 cells, 30 min treatment
Experimental: as §1

Row | SMILES | AMPK activation (% to control) C2C12 (AMPK [1]; 1 microM) | AMPK activation (% to control) C2C12 (AMPK [1]; 10 microM) | AMPK activation (% to control) C2C12 (AMPK [1]; 100 microM) | AMPK activation (% to control) C2C12 (AMPK [1]; 200 microM) | AMPK activation (% to control) 3T3-L1 (AMPK [2]; 1 microM) | AMPK activation (% to control) 3T3-L1 (AMPK [2]; 10 microM) | AMPK activation (% to control) 3T3-L1 (AMPK [2]; 100 microM) | AMPK activation (% to control) 3T3-L1 (AMPK [2]; 200 microM) | AMPK activation (% to control) Hep G2 (AMPK [3]; 1 microM) | AMPK activation (% to control) Hep G2 (AMPK [3]; 10 microM) | AMPK activation (% to control) Hep G2 (AMPK [3]; 100 microM) | AMPK activation (% to control) Hep G2 (AMPK [3]; 200 microM)
1 | Nc1nc(N)c2[nH]cnc2n1 [2,6-diaminopurine] | 116 % to control | 181 % to control | 281 % to control | 381 % to control | 108 % to control | 149 % to control | 288 % to control | 335 % to control | 113 % to control | 155 % to control | 274 % to control | 397 % to control
2 | Oc1nc(O)c2[nH]cnc2n1 [2,6-dihydroxypurine] | 105 % to control | 115 % to control | 231 % to control | 347 % to control | 109 % to control | 132 % to control | 205 % to control | 361 % to control | 114 % to control | 139 % to control | 198 % to control | 302 % to control
3 | Sc1nc(S)c2[nH]cnc2n1 [2,6-dimercaptopurine] | 104 % to control | 117 % to control | 215 % to control | 298 % to control | 102 % to control | 98 % to control | 178 % to control | 260 % to control | 110 % to control | 133 % to control | 244 % to control | 366 % to control
4 | COc1cccc(CNc2nc(N)nc3nc[nH]c23)c1OC [2-amino-6-(2,3-dimethoxybenzylamino)purine] | 106 % to control | 144 % to control | 263 % to control | 334 % to control | 118 % to control | 156 % to control | 250 % to control | 347 % to control | 115 % to control | 127 % to control | 229 % to control | 318 % to control
5 | COc1cc(CNc2nc(C)nc3nc[nH]c23)cc(OC)c1OC [2-methyl-6-(3,4,5-trimethoxybenzylamino)purine] | 106 % to control | 117 % to control | 211 % to control | 361 % to control | 115 % to control | 141 % to control | 254 % to control | 346 % to control | 112 % to control | 168 % to control | 270 % to control | 359 % to control
